Laboratory results: patent publication US11918610B2, “Methods for diagnosis and treatment of type 1 diabetes” (priority 2018, dated 2024)
No end group written: not given here.

Key:
[1] = system: non-obese diabetic mice (NOD/ShiLtJ) colonized with E. coli VT-55; type: in vivo; details: NOD mice gavaged with E. coli VT-55; regimen of each agent as in Table 3; positive control (no therapy) 16, negative controls 24 and 26
Experimental: For this study non-obese diabetic mice (NOD/ShiLtJ) 8 weeks old (Jackson Laboratory, Bar Harbor, Me., USA) were housed and bred under specific pathogen-free conditions. Mice were maintained in a temperature controlled (22±2° C.) animal facility with a 12 hour light/dark cycle and were allowed free access to food and acidified drinking water. To increase the efficacy of E. coli transfer, all animals were exposed to antibiotic treatment before the transfer of E. coli. Starting at three weeks of age, recipient mice were treated with ampicillin (1 g/L) in the drinking water for the next 4 weeks. The bacterial strains used: E. coli strain VT-55—a wild-type, amyloid-producing strain. E. coli VT-55 bacteria were administered with oropharyngeal gavage to 8 week old female mice at 10^8 CFU, 2 times a week. Acceleration of T1D development was accessed by measuring blood glucose in a manner consistent with diabetes monitoring, using a FreeStyle Lite meter and test strips (Abbott). Blood glucose was evaluated weekly via a tail vein. T1D development was defined as occurring after two consecutive blood glucose measurements of at least 250 mg/dL.
TTR was expressed in E. coli VT-243. The TTR protein was precipitated from the supernatant of a 48 hour culture of E. coli VT-243 after centrifugation (12,000×g, 20 minutes 4° C.) of the lysed cells in the gradient 40-90% ammonium sulfate fraction (1.8-3.6 M). The precipitate that contained TTR was dialyzed overnight against 10 mM sodium phosphate buffer, pH 7.5, 100 mM KCl, 1 mM EDTA. The same volume of 200 mM sodium acetate buffer (pH 4.4, 100 mM KCl, 1 mM EDTA) was added to achieve a final pH of 4.5, and the mixture was then incubated for 18 hours at 37° C. Following centrifugation (45 min, 30,000×g, 4° C.), the supernatant was gel filtrated (Superdex 75) to elute phosphate buffer.
To develop nanoparticles with siRNA, we used cholesterol, distearoyl-sn-glycerol-3-phosphocholine (DSPC) and PEG2000-DMG (all Sigma). Nanoparticles were prepared by dissolving the 306013 lipidoid, cholesterol, DSPC, and PEG2000-DMG with final molar ratio of 50:38.5:10:1.5 in a 90% ethanol enriched with 10% 10 nM sodium citrate. Particles were formed following vortexing of equal volumes of siRNA solution with the lipid solution and subsequent dilution in PBS. Mice were orally gavaged with nanoparticles loaded with siRNA at a dose of 5 mg/kg.
The EcVac vaccine consisted of conjugates containing the 0-antigens of serotypes 06 of E. coli VT-55. […] The suspension for iv administration was made in TBS, (pH 7.4; 25 mmol Tris, 137 mmol NaCl, 2.8 mmol KCl).
Balb/c mice were immunized (10 μg) intraperitoneally and boosted (1 μg) subcutaneously with the E. coli amyloid isolated as previously described. Splenocytes were removed under sterile conditions, washed and hybridized to murine plasmacytoma parent cell line SP2/OAg14 using 40% polyethylene glycol and a spleen cell to plasmacytoma cell ratio of 5:1. Cells were plated in 96-well microtiter (Sarstedt) plates at 100,000 cells/per well with DMEM supplemented with 10% fetal bovine serum. Following 48h, cells were supplemented with hypoxanthine (100 PM) containing medium. After three washes with PBS-1% BSA, the presence of specific antibody binding was detected by ELISA. Serotype specific wells were cloned. Pristine-primed BALB/c mice were IP injected with 1×10^7 hybridoma cells. Ascites fluid was collected 14 days later, centrifuged (5000 g, 20 min, Eppendorf) and stored at −80° C. before use.

[2] = system: MG1655 wild-type lysogenic strain biofilm; experiment: Prophage induction with mitomycin C in E. coli biofilm: CFU numbers; type: cell-based, Escherichia coli; details: for CFU: Table 17, prophage induction with mitomycin C, 48-h biofilm; for CFU numbers: prophage induction with 1 μg/ml mitomycin C, 48h biofilm
Experimental: (§1) We used 48h old E. coli biofilms formed by amyloid-producing E. coli VT-55. Bacteriophages λ (from our collection) were employed. E. coli lysogenic strains were obtained by infection of host bacteria with phage. Prophages were induced with 1 μg/ml mitomycin C (Sigma). To confirm lytic development of bacteriophage we measured an increase in the number of plaque forming units (PFU) and the reduction of bacterial colony-forming units CFU numbers, throughout the 4 h to 10 h period (Table 2). The PFU number in E. coli biofilm was determined by the production of plaques on control E. coli culture.
(§2) Next, the E. coli phage/E. coli bacterial cell ratio, which represents the “lytic potential” (FIG. 6) (Waller et al., 2014), was analyzed. E. coli strain MG1655 was used as a host for prophage induction experiments (Jensen 1993). Bacteria were subcultured from freezer stocks onto Mueller-Hinton agar plates (Oxoid) and incubated at 37° C. overnight. All subsequent liquid subcultures were derived from colonies isolated from these plates and were grown in Mueller-Hinton broth (Oxoid). Bacteriophage λ from the inventors' collection was employed. Bacteriophage suspensions were routinely stored in TM buffer (10 mM Tris-HCl, 10 mM MgSO4, pH 7.2) at 4° C. E. coli lysogenic strains were obtained by infection of E. coli MG1655 with the phage and titration of cells on Mueller-Hinton agar plates as previously described (Maniatis et al. 1989). For prophage induction, Mitomycin C (Sigma-Aldrich) was prepared in 0.1 M phosphate buffer (pH 7.2), filtered through a 0.22-μm-pore filter (Millipore Corp., Bedford, Mass.), and stored at 4° C. (Georgopoulos et al., 2002). A modified protocol according to Reyrolle et al. designed for prophage induction on 96-well plates was used (Reyrolle et al., 1982; McDonald et al., 2010). Twenty microliters of an overnight E. coli MG1655 culture, with an absorbance at 600 nm of 0.2, was dispensed in each well of a 96-well flat-bottom polystyrene tissue culture microtiter plate (Sarstedt, Numbrecht, Germany), after which 180 μl of MHB (Oxoid) was added. The plates were incubated at 37° C. for 48 h. Induction of prophages in the E. coli biofilms was provoked by the addition of mitomycin C (Sigma) to a final concentration 1 μg/ml to each well. The plates were further incubated at 37° C. and samples were taken at 4, 6, 8, and 10 h following prophage induction.
(§3) The inventors evaluated how the die-off of E. coli populations due to prophage induction could lead to amyloid release. The inventors used 48-h old E. coli biofilms with confirmed curli expression. Curli formation on 48-h colonies was visible with the naked eye on petri dishes (data not shown). Prophages were induced with mitomycin C. Lytic bacteriophage development was confirmed as an increase in plaque forming units (PFU) and a reduction in colony-forming units (CFU).
(§4) CFU and PFU were determined as follows. To estimate CFU, biofilms were thoroughly scraped (Tetz et al., 2009). Well contents were aspirated, placed in 1 ml of isotonic phosphate buffer (0.15 M, pH 7.2), and the total CFU number was determined by serial dilution and plating on Mueller-Hinton agar. The number of phage virions produced after induction was estimated by phage titration (using strain MG1655 as a host) and phage plaque assay. Following induction, at the indicated times 200-μl samples of biofilms were collected. Then, 30 μl of chloroform was added to each sample, the mixture was vortexed and centrifuged at 3000×g for 5 min in a microcentrifuge (Eppendorf 5415D). A supernatant fraction of the bacterial lysate was further used. The phage titer (number of phages per ml) was determined using the double agar overlay assay method as described previously (Yuan et al., 2012). To this end, 2.5 μl of each titration point of phage lysate was spotted on Mueller-Hinton agar (Oxoid). […]

[3] = system: MG1655 wild-type lysogenic strain (bacteriophage λ) biofilm; experiment: Prophage induction with mitomycin C in E. coli biofilm: PFU numbers (phage plaque assay); type: cell-based, Escherichia coli; details: for PFU: Table 17, prophage induction with mitomycin C, 48-h biofilm; for PFU numbers: prophage induction with 1 μg/ml mitomycin C, 48h biofilm
Experimental: as §1, §2, §3, §4

E. coli biofilm = experiment: Release of bacterial amyloid from E. coli biofilm after prophage induction (Congo Red absorbance of supernatant); type: cell-based, Escherichia coli; details: for Congo Red absorbance of biofilm supernatant (release of bacterial amyloid): 10h following prophage induction
Experimental: Next, the effect of prophage induction on E. coli biofilm to amyloid release was evaluated. The amount of amyloid fibers in the biofilm supernatant was determined following prophage induction. Biofilm supernatant was collected and centrifuged at 5000 rpm (Eppendorf 5113) to sediment cells. Supernatant was filtered with […] and heated to eliminate contaminating proteins by incubating in a boiling water bath for 10 minutes, under the assumption that the aggregated β-sheet amyloid is heat resistant. To quantify the amount of aggregated amyloid, its binding to the amyloid diagnostic dye Congo Red (CR) was evaluated (Table 12). CR added to a final concentration of 10 μg/mL at pH 4.5 was tested using a BioRad UV/Vis spectrophotometer at 25° C. After 5 minutes of equilibration, the absorbance spectra were recorded from 400 to 600 nm. Each trace represents the average of 3 accumulated spectra.
Next, the inventors evaluated the effect of prophage induction on the amount of amyloid fibers released into the biofilm supernatant. Supernatant CR depletion assays were performed as follows. The amount of bacterial amyloid following prophage induction was measured in the supernatant of E. coli MG1655 biofilms. Biofilms were obtained as described above. Biofilm supernatant was taken at 4, 6, 8, and 10 h following prophage induction. To isolate aggregated amyloid fibers from the supernatant, the supernatant was centrifuged at 10,000×g, filtered through a 0.22 μm filter to separate bacterial cells, and treated with proteinase K to eliminate contaminating proteins. CR (Sigma-Aldrich) was added to a final concentration of 10 μg/ml from a filtered stock solution of 1 mg/ml (Reichhardt et al., 2015). After 5 min of equilibration, absorbance spectra were recorded from 400 to 600 nm (SmartSpec 3000, Bio-Rad). Each trace represents the average of 5 accumulated spectra. For all samples, spectra of corresponding nutrient MHB solutions with CR were used as blanks.
To quantify the amount of aggregated amyloid, its binding to the amyloid-diagnostic dye was evaluated by a Congo red (CR) assay (Reichhardt et al., 2015). A significant increase in CR absorbance was observed upon binding to supernatant 8 h following prophage induction as compared with control samples (FIG. 7). Like for other curli fibers, […] of the E. coli supernatant induced a spectral shift of the CR solution, with a maximum difference in absorbance between CR alone and CR bound to amyloid fibers at ˜541 nm (Chapman et al., 2002).

[4] = 48-h old E. coli biofilms, mitomycin C 1 μg/ml

CCCCCCCO[C@H]1O[C@H](CO)[C@@H](O)[C@H](O)[C@@H]1O [n-Heptyl α-D-mannose, reference compound]
Median T1D incidence 50% (weeks) [1]: 22 weeks

Transthyretin: mouse Transthyretin expressed in E. coli VT-243
Median T1D incidence 50% (weeks) [1]: 24 weeks

C[C@H]1c2cccc(O)c2C(=O)C2=C(O)[C@]3(O)C(=O)C(C(N)=O)=C(O)[C@@H](N(C)C)[C@@H]3[C@@H](O)[C@@H]21 [Doxycycline, reference compound]
Median T1D incidence 50% (weeks) [1]: 25 weeks

CO[C@@]12[C@H](COC(N)=O)C3=C(C(=O)C(C)=C(N)C3=O)N1C[C@@H]1N[C@@H]12 [mytomicin C]
CFU ([2]; 4 h): 8.8 log10 CFU/ml | CFU ([2]; 6 h): 8.2 log10 CFU/ml | CFU ([2]; 8 h): 7.6 log10 CFU/ml | CFU ([2]; 10 h): 7.4 log10 CFU/ml | PFU ([3]; 4 h): 2.3 log10 PFU/ml | PFU ([3]; 6 h): 9.3 log10 PFU/ml | PFU ([3]; 8 h): 10.4 log10 PFU/ml | PFU ([3]; 10 h): 11.2 log10 PFU/ml

O=C(O)C1CSC2=C(C3CC3)C(Cc3cccc4ccccc34)CC(=O)N21 (stereo not drawn) [8-cyclopropyl-7-(1-naphthylmethyl)-5-oxo-2,3,6,7-tetrahydro-5H-[1,3]thiazolo[3,2-a]pyridine-3-carboxylic acid]
Median T1D incidence 50% (weeks) [1]: 21 weeks

GGVLVQPG [Larazotide, Glycylglycyl-L-valyl-L-leucyl-L-valyl-L-glutaminyl-L-prolyl-glycine, reference compound]
Median T1D incidence 50% (weeks) [1]: 24 weeks

CO[C@@]12[C@H](COC(N)=O)C3=C(C(=O)C(C)=C(N)C3=O)N1C[C@@H]1N[C@@H]12 [mitomycin C, reference compound]
Colony-forming units (CFU) after prophage induction (in words) [2, 4]: reduction | Plaque forming units (PFU) after prophage induction (in words) [3, 4]: increase | Amyloid release from preformed E. coli biofilms after prophage activation (in words) (E. coli biofilm; in vitro, mitomycin C 1 μg/ml, 48 h biofilms): pronounced amyloid release

CO[C@@]12[C@H](COC(N)=O)C3=C(C(=O)C(C)=C(N)C3=O)N1C[C@@H]1N[C@@H]12 [Mytomicin C]
CFU numbers ([2]; 4 h): 8.8log10 +/− log10 CFU/ml | CFU numbers ([2]; 6 h): 8.2log10 +/− log10 CFU/ml | CFU numbers ([2]; 8 h): 7.6log10 +/− log10 CFU/ml | CFU numbers ([2]; 10 h): 7.4log10 +/− log10 CFU/ml | PFU numbers ([3]; 4 h): 2.3log10 +/− log10 PFU/ml | PFU numbers ([3]; 6 h): 9.3log10 +/− log10 PFU/ml | PFU numbers ([3]; 8 h): 10.4log10 +/− log10 PFU/ml | PFU numbers ([3]; 10 h): 11.2log10 +/− log10 PFU/ml | Congo Red absorbance of biofilm supernatant (release of bacterial amyloid) (E. coli biofilm; wavelength 400 nm): 0 | Congo Red absorbance of biofilm supernatant (release of bacterial amyloid) (E. coli biofilm; wavelength 450 nm): 0.156 | Congo Red absorbance of biofilm supernatant (release of bacterial amyloid) (E. coli biofilm; wavelength 500 nm): 0.338 | Congo Red absorbance of biofilm supernatant (release of bacterial amyloid) (E. coli biofilm; wavelength 541 nm): 0.421 | Congo Red absorbance of biofilm supernatant (release of bacterial amyloid) (E. coli biofilm; wavelength 550 nm): 0.345 | Congo Red absorbance of biofilm supernatant (release of bacterial amyloid) (E. coli biofilm; wavelength 600 nm): 0.015
